Laboratory results taken from US20260226071A1, “2, 4-DIANILINOPYRIMIDINE-BASED AURORA-A KINASE SELECTIVE DEGRADATION INDUCING COMPOUNDS” (UPPTHERA, INC., priority 2023, published 2026).

What was measured:
NCI-H446 cell line = assay: Cell viability assay for NCI-H446 cell line; assay type: cell-based; conditions: Homo sapiens, NCI-H446, 120 h; H446 cells, 5 days culture, EZ-Cytox; read-out: IC50 value (Level)
From the text: The NCI-H446 (hereafter H446) cell lines were provided from American Type Culture Collection (ATCC). For cell culture, RPMI medium 1640 (Gibco, Cat. No. 22400-089; Lot. No. 2522717), FBS (Gibco, Cat. No. 16000-044; Lot. No. 2716756P), Penicillin/Streptomycin (PS) (Gibco, Cat. No. 15140-122; Lot. No. 2585636), 75T cell culture flask (SPL, Cat. No. 70075), 96 well cell culture plate (SPL, Cat. No. 30096), PBS pH 7.4 (Gibco, Cat. No. 10010-023; Lot. No. 2561466), TrypLE™ Express (Gibco, Cat. No. 12605-010; Lot. No. 2492811), counting chamber (hematocytometer) (Hirschmann, Cat. No. 8100204) and 0.4% Trypan Blue solution (DYNEBIO, Cat. No. CBT3710; Lot. No. 20231017) were used. Cells were cultured in RPMI 1640 medium supplemented with 10% FBS and 1% PS and incubated at 37° C., 5% CO2 condition in CO2 incubator (ThermoScientific, Cat. No. 4111).
For experiment, the present compounds were fully dissolved in DMSO (Sigma-Aldrich Cat. No. D2438, Lot. No. RNBL7287.
In each well of 96-well cell culture plate, […] cells of H446 cell lines were seeded in 150 μl of total medium volume. After 24 hours of cell seeding, the present compounds were treated.
The present compounds were each diluted 3-folds from the highest concentration of 1000 nM to the lowest concentration of 0.15 nM. The compound was added to each well to make the total volume of […] and the cells were cultured for 5 days in CO2 incubator (Thermo Fisher Science, Cat. No. 4111).
Thereafter, 20 μl of EZ-Cytox (DOGEN, Cat. NO. EZ-3000, Lot. No. DLS2308) was added to each well and the cells were cultured for 4 hours at the same condition in CO2 incubator. After culture, the absorbance of the sample was measured by setting the wavelength of a plate reader (BMG Labtech, CLARIOstar Plus) to […]. The samples were shaked for 2 minutes in the plate reader before measurement.

Aurora kinase A (AURKA) = molecular target: T1, Aurora kinase A (AURKA) (Homo sapiens, UniProt O14965); assay: Luciferase assay for AURKA in HeLa LgBit (AURKA-HiBit KI) cell line; assay type: cell-based; conditions: HeLa LgBit (AURKA-HiBit KI) cells, measured after 12 hours
T1 construct: endogenous in cells; host or cells: HeLa LgBit (AURKA-HiBit KI), CRISPR/Cas9 knock-in at the endogenous AURKA locus
T1 sequence (O14965 1-403): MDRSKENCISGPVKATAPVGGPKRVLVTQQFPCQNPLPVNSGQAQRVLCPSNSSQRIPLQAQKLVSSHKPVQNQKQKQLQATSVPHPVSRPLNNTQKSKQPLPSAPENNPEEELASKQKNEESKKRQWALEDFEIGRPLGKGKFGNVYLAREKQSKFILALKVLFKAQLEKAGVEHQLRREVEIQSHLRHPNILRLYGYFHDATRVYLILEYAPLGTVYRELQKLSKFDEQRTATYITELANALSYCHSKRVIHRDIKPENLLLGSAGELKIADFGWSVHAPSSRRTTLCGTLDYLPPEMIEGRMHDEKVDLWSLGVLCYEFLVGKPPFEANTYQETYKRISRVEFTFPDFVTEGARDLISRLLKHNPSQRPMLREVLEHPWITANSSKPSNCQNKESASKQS
Method in brief: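 Test compounds (10 nM or 100 nM) added to AURKA-HiBit knock-in HeLa LgBit cells that had been pre-loaded with Endurazine for 2 h following an 18 h culture at 3×10^4 cells. Endogenous AURKA-HiBit level followed by luminescence (470-480 nm), measured after 12 h.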

Compound | IC50 (NCI-H446 cell line) [nM] | luminescence value (Level) (Aurora kinase A (AURKA); 10 nM compound) | luminescence value (Level) (Aurora kinase A (AURKA); 100 nM compound)
O=C1CCC(c2ccc(N3CCC(CN4CCN(C(=O)Cc5ccc(Nc6ncc(F)c(Nc7ccc(C(=O)Nc8ccccc8Cl)cc7)n6)cc5)CC4)CC3)cc2)C(=O)N1 (stereo not drawn) [Compound 1, N-(2-chlorophenyl)-4-((2-((4-(2-(4-((1-(4-(2,6-dioxopiperidin-3-yl)phenyl)piperidin-4-yl)methyl)piperazin-1-yl)-2-oxoethyl)phenyl)amino)-5-fluoropyrimidin-4-yl)amino)benzamide] | 100 to 150 | C (C is 0.5 to 0.7) | A (A is <0.2)
O=C1CCC(c2ccc(N3CCN(CC4CCN(C(=O)c5ccc(Nc6ncc(F)c(Nc7ccc(C(=O)Nc8ccccc8Cl)cc7)n6)cc5)CC4)CC3)cc2)C(=O)N1 (stereo not drawn) [Compound 3, N-(2-chlorophenyl)-4-((2-((4-(4-((4-(4-(2,6-dioxopiperidin-3-yl)phenyl)piperazin-1-yl)methyl)piperidine-1-carbonyl)phenyl)amino)-5-fluoropyrimidin-4-yl)amino)benzamide] | 50 to 100 | C (C is 0.5 to 0.7) | A (A is <0.2)
CN(CC1CCN(c2ccc(C3CCC(=O)NC3=O)cc2)CC1)C1CCC(NC(=O)c2ccc(Nc3ncc(F)c(Nc4ccc(C(=O)Nc5ccccc5Cl)cc4)n3)cc2)CC1 (stereo not drawn) [Compound 4, N-(2-chlorophenyl)-4-((2-((4-((4-(((1-(4-(2,6-dioxopiperidin-3-yl)phenyl)piperidin-4-yl)methyl)(methyl)amino)cyclohexyl)carbamoyl)phenyl)amino)-5-fluoropyrimidin-4-yl)amino)benzamide] | 100 to 150 | C (C is 0.5 to 0.7) | A (A is <0.2)
O=C1CCC(c2ccc(N3CCN(CC(=O)N4CCC(NC(=O)c5ccc(Nc6ncc(F)c(Nc7ccc(C(=O)Nc8ccccc8Cl)cc7)n6)cc5)CC4)CC3)cc2)C(=O)N1 (stereo not drawn) [Compound 5, N-(2-chlorophenyl)-4-((2-((4-((1-(2-(4-(4-(2,6-dioxopiperidin-3-yl)phenyl)piperazin-1-yl)acetyl)piperidin-4-yl)carbamoyl)phenyl)amino)-5-fluoropyrimidin-4-yl)amino)benzamide] | < 50 | B (B is 0.3 to 0.5) | A (A is <0.2)
CC(CN1CCN(c2ccc(C3CCC(=O)NC3=O)cc2)CC1)C1CCN(NC(=O)c2ccc(Nc3ncc(F)c(Nc4ccc(C(=O)Nc5ccccc5Cl)cc4)n3)cc2)CC1 (stereo not drawn) [Compound 6, N-(2-chlorophenyl)-4-((2-((4-((4-(1-(4-(4-(2,6-dioxopiperidin-3-yl)phenyl)piperazin-1-yl)propan-2-yl)piperidin-1-yl)carbamoyl)phenyl)amino)-5-fluoropyrimidin-4-yl)amino)benzamide] | < 50 | B (B is 0.3 to 0.5) | A (A is <0.2)
O=C1CCC(c2ccc(N3CCN(CCC4CCN(NC(=O)c5ccc(Nc6ncc(F)c(Nc7ccc(C(=O)Nc8ccccc8Cl)cc7)n6)cc5)CC4)CC3)cc2)C(=O)N1 (stereo not drawn) [Compound 7, N-(2-chlorophenyl)-4-((2-((4-((4-(2-(4-(4-(2,6-dioxopiperidin-3-yl)phenyl)piperazin-1-yl)ethyl)piperidin-1-yl)carbamoyl)phenyl)amino)-5-fluoropyrimidin-4-yl)amino)benzamide] | < 50 | A (A is <0.3) | A (A is <0.2)
O=C1CCC(c2ccc(N3CC(CN4CCC(NC(=O)c5ccc(Nc6ncc(F)c(Nc7ccc(C(=O)Nc8ccccc8Cl)cc7)n6)cc5)CC4)C3)cc2)C(=O)N1 (stereo not drawn) [Compound 8, N-(2-chlorophenyl)-4-((2-((4-((1-((1-(4-(2,6-dioxopiperidin-3-yl)phenyl)azetidin-3-yl)methyl)piperidin-4-yl)carbamoyl)phenyl)amino)-5-fluoropyrimidin-4-yl)amino)benzamide] | < 50 | B (B is 0.3 to 0.5) | A (A is <0.2)
O=C1CCC(c2ccc(N3CCC(CN4CCC(NC(=O)c5ccc(Nc6ncc(F)c(Nc7ccc(C(=O)Nc8ccccc8Cl)cc7)n6)cc5)CC4)C3)cc2)C(=O)N1 (stereo not drawn) [Compound 9, N-(2-chlorophenyl)-4-((2-((4-((1-((1-(4-(2,6-dioxopiperidin-3-yl)phenyl)pyrrolidin-3-yl)methyl)piperidin-4-yl)carbamoyl)phenyl)amino)-5-fluoropyrimidin-4-yl)amino)benzamide] | < 50 | B (B is 0.3 to 0.5) | A (A is <0.2)
O=C1CCC(c2ccc(N3CCC(CCC(=O)N4CCC(NC(=O)c5ccc(Nc6ncc(F)c(Nc7ccc(C(=O)Nc8ccccc8Cl)cc7)n6)cc5)CC4)CC3)cc2)C(=O)N1 (stereo not drawn) [Compound 12, N-(2-chlorophenyl)-4-((2-((4-((1-(3-(1-(4-(2,6-dioxopiperidin-3-yl)phenyl)piperidin-4-yl)propanoyl)piperidin-4-yl)carbamoyl)phenyl)amino)-5-fluoropyrimidin-4-yl)amino)benzamide] | < 50 | B (B is 0.3 to 0.5) | A (A is <0.2)
O=C1CCC(c2ccc(N3CCN(Cc4ccc(NC(=O)c5ccc(Nc6ncc(F)c(Nc7ccc(C(=O)Nc8ccccc8Cl)cc7)n6)cc5)cc4)CC3)cc2)C(=O)N1 (stereo not drawn) [Compound 13, N-(2-chlorophenyl)-4-((2-((4-((4-((4-(4-(2,6-dioxopiperidin-3-yl)phenyl)piperazin-1-yl)methyl)phenyl)carbamoyl)phenyl)amino)-5-fluoropyrimidin-4-yl)amino)benzamide] | > 200 | C (C is 0.5 to 0.7) | B (B is 0.2 to 0.4)
O=C1CCC(c2ccc(N3CCN(C[C@H]4CC[C@H](NC(=O)c5ccc(Nc6ncc(F)c(Nc7ccc(C(=O)Nc8ccccc8Cl)cc7)n6)cc5)CC4)CC3)cc2)C(=O)N1 (stereo partly drawn) [Compound 16, N-(2-chlorophenyl)-4-((2-((4-(((1r,4r)-4-((4-(4-(2,6-dioxopiperidin-3-yl)phenyl)piperazin-1-yl)methyl)cyclohexyl)carbamoyl)phenyl)amino)-5-fluoropyrimidin-4-yl)amino)benzamide] | 50 to 100 | B (B is 0.3 to 0.5) | A (A is <0.2)
O=C1CCC(c2ccc(N3CCN(CC[C@H]4CC[C@H](NC(=O)c5ccc(Nc6ncc(F)c(Nc7ccc(C(=O)Nc8ccccc8Cl)cc7)n6)cc5)CC4)CC3)cc2)C(=O)N1 (stereo partly drawn) [Compound 17, N-(2-chlorophenyl)-4-((2-((4-(((1r,4r)-4-(2-(4-(4-(2,6-dioxopiperidin-3-yl)phenyl)piperazin-1-yl)ethyl)cyclohexyl)carbamoyl)phenyl)amino)-5-fluoropyrimidin-4-yl)amino)benzamide] | 50 to 100 | A (A is <0.3) | A (A is <0.2)
O=C1CCC(c2ccc(N3CCN(CCN4CCC(NC(=O)c5ccc(Nc6ncc(F)c(Nc7ccc(C(=O)Nc8ccccc8Cl)cc7)n6)cc5)CC4)CC3)cc2)C(=O)N1 (stereo not drawn) [Compound 18, N-(2-chlorophenyl)-4-((2-((4-((1-(2-(4-(4-(2,6-dioxopiperidin-3-yl)phenyl)piperazin-1-yl)ethyl)piperidin-4-yl)carbamoyl)phenyl)amino)-5-fluoropyrimidin-4-yl)amino) benzamide] | < 50 | A (A is <0.3) | A (A is <0.2)
